Test results: PubChem BioAssay AID493101 (Broad Institute, 2011)
Results filed as inconclusive are left out. Active and inactive are the calls of the source.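 How the source made its calls: active means luminescence falls with dose and the fitted half-maximal concentration is within ten times the top dose in every run; inconclusive means runs disagree, or a flat moderate drop, or a poor fit; inactive means every run inactive, including rises or flat response.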

Key:
[1] = inhibitors of AI-2 quorum sensing in V. harveyi, dose response, LuxS, LuxPQ, dry powder, set 4 (AID 493101); settings: Vibrio harveyi JMH597 AI-2 quorum sensing luminescence, 9 h; at 16 µM (top of the series)
[2] = test system: Vibrio harveyi JMH597 AI-2 quorum sensing luminescence, 9 h; test: as above

Row | SMILES | activity change, negative = inhibition [1] | AC50 [2]
1 | CC(=O)Nc1ccccc1NS(=O)(=O)c1cn(C)cn1 | 2.17% (inactive) | 
2 | Cn1cnc(S(=O)(=O)Nc2ccccc2F)c1 | 2.07% (inactive) | 
3 | Cn1cnc(S(=O)(=O)Nc2ccc(OC(F)(F)F)cc2)c1 |  | 8.62 µM
4 | C=Cn1c(C(=O)O)ccc1-c1ccc(CC)cc1 |  | 3.22 µM
5 | O=S(=O)(Nc1cccnc1)c1ccc(Oc2ccccc2)cc1 |  | 0.766 µM
6 | CN(C)C(=O)c1ccccc1NS(=O)(=O)c1cn(C)cn1 | 0.404% (inactive) | 
7 | Cc1ccccc1NS(=O)(=O)c1cn(C)cn1 | -1.44% (inactive) | 
8 | COc1ccccc1NS(=O)(=O)c1cn(C)cn1 | -5.36% (inactive) | 
9 | CCc1ccc(-c2ccc(C(=O)O)n2C)cc1 |  | 5.52 µM
10 | O=S(=O)(Nc1ccccn1)c1ccc(Oc2ccccc2)cc1 |  | 7.34 µM
11 | Cn1cnc(S(=O)(=O)Nc2ccccc2Cl)c1 | 3.87% (inactive) | 
12 | CCc1ccc(-c2ccc(C(=O)O)n2CC)cc1 | 2.4% (inactive) | 
13 | O=C1C=C/C(=C/Br)O1 |  | 4.64 µM
